We go through 2 compounds from patent US20220306695A1, “COMPSTATIN ANALOGUES AND THEIR MEDICAL USES” (priority 2019, published 2022).

A short description of this series: Solubility test at 10 mg/mL (visual inspection and light scattering). The conditions noted are these: for Solubility, Condition 1 Acetate pH 4: 10 mg/mL compound in 100 mM acetate pH 4; for Solubility, Condition 2 Acetate pH 5: 10 mg/mL compound in 100 mM acetate pH 5; for Solubility, Condition 3 Phosphate pH 6: 10 mg/mL compound in 100 mM phosphate pH 6; for Solubility, Condition 4 Phosphate pH 7: 10 mg/mL compound in 100 mM phosphate pH 7; for Solubility, Condition 5 Phosphate pH 7.5: 10 mg/mL compound in 100 mM phosphate pH 7.5. Type of series: physicochemical. The protocol:
The solubility of compounds was assessed by measuring light scattering over a pH interval from pH 4 to pH 7.5.
Compounds were dissolved in a stock solution of 20 mg/mL in H2O at pH 2.5 or pH 10.
These stock solutions were diluted 1:1 with 200 mM buffered solution to reach a final solution of 10 mg/mL compound in 100 mM buffer. The 5 investigated conditions were (1) acetate pH 4.0, (2) acetate pH 5.0, (3) phosphate pH 6.0, (4) phosphate pH 7 and (5) phosphate pH 7.5.
Visual inspection included manually checking the 96 well plate for wells that are clear or non-clear. In addition to this a picture of the 96 well plate is taken.
Absorbance was measured at four wavelengths: 280 nm, 325 nm, 340 nm and 360 nm in an UV transparent 96 well microplate in a SpectraMax 190 microplate reader (Molecular Devices).
The criteria for this was a combination of visual inspection and light scattering not exceeding 0.1 AU, where values below 0.1 AU are good in visually clear samples. […]

Molecules are shown by their SMILES. Starred links: 1 amine or outer side, 2 acyl side, 3 side chain; linkers in the order of their positions; H or OH if unused. Positions of bridges follow the written chain, without caps; N, C: chain ends. Non-standard residues stand in square brackets, D forms with d. Residues, ends and D or L forms follow the SMILES beside them. Groups on a side chain read outwards from the residue. *: point of attachment. Trp(1-Me) = Cn1cc(C[C@H](N)C(=O)O)c2ccccc21; C18 diacid = O=C(O)CCCCCCCCCCCCCCCCC(=O)*; γGlu = O=C(O)[C@H](CCC(=O)[*:2])N[*:1]; Sar = CNCC(=O)O

`CC[C@H](C)[C@@H]1NC(=O)[C@@H](NC(=O)[C@H](Cc2ccc(O)cc2)NC(=O)[C@H](CCC(=O)O)NC(=O)[C@H](CO)NC(C)=O)CSSC[C@@H](C(=O)N(C)CC(=O)N[C@@H](CCC(=O)O)C(=O)NCC(=O)N[C@@H](CCC(=O)O)C(=O)N[C@@H](CCCCNC(=O)CC[C@H](NC(=O)[C@H](CCCCN)NC(=O)CC[C@H](NC(=O)CCCCCCCCCCCCCCCCC(=O)O)C(=O)O)C(=O)O)C(N)=O)NC(=O)[C@H](CCCNC(=N)N)NC(=O)[C@H](Cc2c[nH]cn2)NC(=O)[C@H](CCC(=O)O)NC(=O)CNC(=O)[C@H](Cc2c[nH]c3ccccc23)NC(=O)[C@H](CC(=O)O)NC(=O)[C@H](CCC(N)=O)NC(=O)[C@H](Cc2cn(C)c3ccccc23)NC1=O` [Compound 116] (Ac-SEYCI[Trp(1-Me)]QDWGEHRC[Sar]EGEK([γGlu-Lys-γGlu-C18 diacid])-NH2; disulfide 4-14): the “Solubility, Condition 1 Acetate pH 4” value is on record as “− (denotes lack of solubility at the given condition, as UV absorbance at 340 nm exceeds 0.1 AU and/or it is visibly turbid or contains particles.)”; the “Solubility, Condition 2 Acetate pH 5” value is reported as “− (denotes lack of solubility at the given condition, as UV absorbance at 340 nm exceeds 0.1 AU and/or it is visibly turbid or contains particles.)”; the “Solubility, Condition 3 Phosphate pH 6” value was “+ (denotes solubility at the given condition, as determined by UV absorbance being less than 0.1 AU at 340 nm and the sample being clear when manually inspected.)”; the “Solubility, Condition 4 Phosphate pH 7” value is “+ (denotes solubility at the given condition, as determined by UV absorbance being less than 0.1 AU at 340 nm and the sample being clear when manually inspected.)”. The “Solubility, Condition 5 Phosphate pH 7.5” value is “+ (denotes solubility at the given condition, as determined by UV absorbance being less than 0.1 AU at 340 nm and the sample being clear when manually inspected.)”.
Take `CC[C@H](C)[C@@H]1NC(=O)[C@@H](NC(=O)[C@H](Cc2ccc(O)cc2)NC(=O)[C@H](C)NC(=O)[C@H](CO)NC(C)=O)CSSC[C@@H](C(=O)N(C)CC(=O)N[C@@H](CCC(=O)O)C(=O)N[C@@H](CCCCNC(=O)CC[C@H](NC(=O)CNC(=O)[C@H](CCCCN)NC(=O)CC[C@H](NC(=O)CCCCCCCCCCCCCCCCC(=O)O)C(=O)O)C(=O)O)C(N)=O)NC(=O)[C@H](CCCNC(=N)N)NC(=O)[C@H](Cc2c[nH]cn2)NC(=O)[C@H](CCC(=O)O)NC(=O)CNC(=O)[C@H](Cc2c[nH]c3ccccc23)NC(=O)[C@H](CC(=O)O)NC(=O)[C@H](CCC(N)=O)NC(=O)[C@H](Cc2cn(C)c3ccccc23)NC1=O` [Compound 105] (Ac-SAYCI[Trp(1-Me)]QDWGEHRC[Sar]EK([γGlu-Gly-Lys-γGlu-C18 diacid])-NH2; disulfide 4-14): the “Solubility, Condition 1 Acetate pH 4” value is reported as “− (denotes lack of solubility at the given condition, as UV absorbance at 340 nm exceeds 0.1 AU and/or it is visibly turbid or contains particles.)”; the “Solubility, Condition 2 Acetate pH 5” value was “− (denotes lack of solubility at the given condition, as UV absorbance at 340 nm exceeds 0.1 AU and/or it is visibly turbid or contains particles.)”; the “Solubility, Condition 3 Phosphate pH 6” value is “+ (denotes solubility at the given condition, as determined by UV absorbance being less than 0.1 AU at 340 nm and the sample being clear when manually inspected.)”; the “Solubility, Condition 4 Phosphate pH 7” value was “+ (denotes solubility at the given condition, as determined by UV absorbance being less than 0.1 AU at 340 nm and the sample being clear when manually inspected.)”. In addition, the “Solubility, Condition 5 Phosphate pH 7.5” value was “+ (denotes solubility at the given condition, as determined by UV absorbance being less than 0.1 AU at 340 nm and the sample being clear when manually inspected.)”.
